Results as given in PubChem BioAssay (NCI).
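Growth conditions: 96-well plates. Treatment: test compound, 48 hours, 5 concentrations. Analysis: linear interpolation between bracketing concentrations; unreached endpoints set to highest concentration. GI50 = concentration required for 50% inhibition of growth. TGI is the concentration that stops growth completely.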

Experiments:
Test in all cases: NCI tumour cell line growth inhibition, 48 h
[1] = test system: HL-60(TB) leukemia
[2] = test system: EKVX NSCLC
[3] = test system: KM12 colon
[4] = test system: DLD-1 colon
[5] = test system: MALME-3M melanoma
[6] = test system: SK-OV-3 ovarian
[7] = test system: IGROV1 ovarian
[8] = test system: CAKI-1 renal
[9] = test system: A498 renal
[10] = test system: SF-539 CNS
[11] = test system: KM20L2 colon
[12] = test system: OVCAR-5 ovarian
[13] = test system: P388 leukemia
[14] = test system: MCF7 breast
[15] = test system: UO-31 renal
[16] = test system: LOX IMVI melanoma
[17] = test system: HOP-92 NSCLC
[18] = test system: SK-MEL-5 melanoma
[19] = test system: SW-620 colon
[20] = test system: U251 CNS
[21] = test system: SK-MEL-2 melanoma
[22] = test system: HT29 colon
[23] = test system: SF-268 CNS
[24] = test system: OVCAR-4 ovarian
[25] = test system: HCT-15 colon
[26] = test system: XF 498 CNS
[27] = test system: NCI/ADR-RES ovarian
[28] = test system: OVCAR-8 ovarian
[29] = test system: SN12K1 renal
[30] = test system: UACC-257 melanoma
[31] = test system: SNB-78 CNS
[32] = test system: K-562 leukemia
[33] = test system: A549 NSCLC
[34] = test system: M19-MEL melanoma
[35] = test system: SNB-75 CNS
[36] = test system: NCI-H460 lung
[37] = test system: DMS 114 small cell lung
[38] = test system: NCI-H23 lung
[39] = test system: UACC-62 melanoma
[40] = test system: COLO 205 colon
[41] = test system: DMS 273 small cell lung
[42] = test system: RPMI-8226 leukemia
[43] = test system: SK-MEL-28 melanoma
[44] = test system: RXF 393 renal
[45] = test system: HOP-18 NSCLC
[46] = test system: P388/ADR leukemia
[47] = test system: SN12C renal
[48] = test system: SNB-19 CNS
[49] = test system: SF-295 CNS
[50] = test system: NCI-H522 lung
[51] = test system: NCI-H226 lung
[52] = test system: MOLT-4 leukemia
[53] = test system: HCC-2998 colon
[54] = test system: HCT-116 colon
[55] = test system: CCRF-CEM leukemia
[56] = test system: OVCAR-3 ovarian
[57] = test system: HOP-62 NSCLC
[58] = test system: LXFL 529 NSCLC
[59] = test system: TK-10 renal
[60] = test system: 786-0 renal
[61] = test system: M14 melanoma
[62] = test system: RXF-631 renal
[63] = test system: ACHN renal

Q: Which TGI [1] does the source give for `C=C1C(=O)O[C@@H]2[C@H](O)[C@@H](C)[C@@H]3C=CC(=O)[C@@]3(C)[C@@H](OC(=O)/C(C)=C/C)[C@H]12` here?
A: Its TGI is 9.82 µM.

Q: And the TGI [2]?
A: Its TGI is 1.93 µM.

Q: What about the TGI [3] of the same molecule?
A: The TGI was 7.21 µM.

Q: And the TGI [4]?
A: Its TGI is 1.31 µM.

Q: And the TGI [5]?
A: The TGI was 1.49 µM.

Q: What about the TGI [6] of the same molecule?
A: The TGI was 14.1 µM.

Q: And the TGI [7]?
A: Its TGI is 2.02 µM.

Q: And the TGI [8]?
A: The TGI was 2.02 µM.

Q: And the TGI [9]?
A: Its TGI is 6.88 µM.

Q: What about the TGI [10] of the same molecule?
A: Its TGI is 1.96 µM.

Q: What about the TGI [11] of the same molecule?
A: Its TGI is 5.54 µM.

Q: What about the TGI [12] of the same molecule?
A: Its TGI is 8.31 µM.

Q: And the TGI [13]?
A: The TGI was 2.74 µM.

Q: What about the TGI [14] of the same molecule?
A: The TGI was 5.15 µM.

Q: And the TGI [15]?
A: The TGI was 10.1 µM.

Q: And the TGI [16]?
A: Its TGI is 2.88 µM.

Q: What about the TGI [17] of the same molecule?
A: Its TGI is 1.78 µM.

Q: And the TGI [18]?
A: The TGI was 4.43 µM.

Q: What about the TGI [19] of the same molecule?
A: Its TGI is 1.14 µM.

Q: What about the TGI [20] of the same molecule?
A: Its TGI is 5.26 µM.

Q: And the TGI [21]?
A: The TGI was 2.78 µM.

Q: What about the TGI [22] of the same molecule?
A: The TGI was 4.15 µM.

Q: What about the TGI [23] of the same molecule?
A: Its TGI is 3.84 µM.

Q: What about the TGI [24] of the same molecule?
A: Its TGI is 3.05 µM.

Q: What about the TGI [25] of the same molecule?
A: The TGI was 1.06 µM.

Q: What about the TGI [26] of the same molecule?
A: The TGI was 0.867 µM.

Q: What about the TGI [27] of the same molecule?
A: The TGI was 5.39 µM.

Q: What about the TGI [28] of the same molecule?
A: The TGI was 2.72 µM.

Q: What about the TGI [29] of the same molecule?
A: The TGI was 0.688 µM.

Q: What about the TGI [30] of the same molecule?
A: Its TGI is 1.87 µM.

Q: What about the TGI [31] of the same molecule?
A: The TGI was 8.03 µM.

Q: And the TGI [32]?
A: The TGI was 3.48 µM.

Q: And the TGI [33]?
A: Its TGI is 13.4 µM.

Q: And the TGI [34]?
A: The TGI was 1.22 µM.

Q: And the TGI [35]?
A: The TGI was 3.63 µM.

Q: And the TGI [36]?
A: Its TGI is 1.93 µM.

Q: And the TGI [37]?
A: Its TGI is 3.63 µM.

Q: And the TGI [38]?
A: Its TGI is 2.57 µM.

Q: And the TGI [39]?
A: Its TGI is 1.11 µM.

Q: And the TGI [40]?
A: The TGI was 1.11 µM.

Q: And the TGI [41]?
A: Its TGI is 3.56 µM.

Q: And the TGI [42]?
A: Its TGI is 0.473 µM.

Q: What about the TGI [43] of the same molecule?
A: The TGI was 1.34 µM.

Q: What about the TGI [44] of the same molecule?
A: Its TGI is 1.14 µM.

Q: And the TGI [45]?
A: Its TGI is 4.75 µM.

Q: And the TGI [46]?
A: Its TGI is 1.08 µM.

Q: And the TGI [47]?
A: The TGI was 2.52 µM.

Q: And the TGI [48]?
A: Its TGI is 6.92 µM.

Q: And the TGI [49]?
A: Its TGI is 8.34 µM.

Q: What about the TGI [50] of the same molecule?
A: The TGI was 0.258 µM.

Q: What about the TGI [51] of the same molecule?
A: The TGI was 8.97 µM.

Q: And the TGI [52]?
A: Its TGI is 2.09 µM.

Q: What about the TGI [53] of the same molecule?
A: Its TGI is 4.19 µM.

Q: And the TGI [54]?
A: Its TGI is 1.03 µM.

Q: What about the TGI [55] of the same molecule?
A: Its TGI is 2.05 µM.

Q: What about the TGI [56] of the same molecule?
A: The TGI was 1.69 µM.

Q: And the TGI [57]?
A: The TGI was 15.3 µM.

Q: Which results are given for `C=C(NC(=O)C(=C)NC(=O)c1csc(C2=NC3c4csc(n4)C4NC(=O)c5csc(n5)C(C(C)(O)C(C)O)NC(=O)C5CSC(=N5)/C(=C/C)NC(=O)C(C(C)O)NC(=O)c5csc(n5)C3(CC2)NC(=O)C(C)NC(=O)C(=C)NC(=O)C(C)NC(=O)C(C(C)CC)NC2C=Cc3c(C(C)O)cc(nc3C2O)C(=O)OC4C)n1)C(N)=O` (stereo unspecified)?
A: TGI [1]: > 100 µM; TGI [2]: > 44.1 µM; TGI [4]: 4.44 µM; TGI [5]: 3.99 µM; TGI [6]: > 67.8 µM; TGI [7]: 63.8 µM; TGI [8]: > 100 µM; TGI [9]: 3.59 µM; TGI [10]: 4.13 µM; TGI [11]: 10.7 µM; TGI [12]: > 51.4 µM; TGI [13]: 0.19 µM; GI50 [14]: 6.27 µM; TGI [14]: > 100 µM; TGI [15]: > 100 µM; TGI [16]: 2.45 µM; GI50 [17]: 8.07 µM; TGI [17]: > 100 µM; TGI [18]: 2.58 µM; TGI [19]: 1.62 µM; TGI [20]: 3.04 µM; TGI [21]: 4.12 µM; TGI [22]: 3.14 µM; GI50 [23]: 4.74 µM; TGI [23]: > 100 µM; TGI [24]: > 100 µM; TGI [25]: > 34 µM; TGI [27]: > 100 µM; GI50 [28]: 1.6 µM; TGI [28]: 10.8 µM; TGI [29]: 2.57 µM; TGI [30]: 4.22 µM; TGI [31]: > 100 µM; TGI [33]: 58.4 µM; TGI [58]: 1.65 µM; TGI [59]: 31.3 µM; TGI [34]: 3.05 µM; TGI [35]: > 24 µM; TGI [36]: 4.39 µM; TGI [37]: 7.69 µM; TGI [38]: 13.7 µM; TGI [60]: 3.26 µM; TGI [39]: 2.42 µM; GI50 [40]: 0.299 µM; TGI [40]: 0.836 µM; TGI [41]: 2.8 µM; TGI [42]: 6.28 µM; TGI [43]: 3.71 µM; GI50 [44]: 0.307 µM; TGI [44]: 0.977 µM; TGI [45]: 16.8 µM; TGI [47]: 3.93 µM; TGI [48]: 8.28 µM; TGI [49]: 12.8 µM; TGI [50]: 1.15 µM; TGI [61]: 3.17 µM; TGI [51]: 3.8 µM; TGI [62]: 18 µM; TGI [63]: 11.7 µM; TGI [53]: > 39.9 µM; TGI [54]: 1.77 µM; TGI [55]: 3.49 µM; TGI [56]: > 25.8 µM; TGI [57]: 99.4 µM
